Results published in US9932309B2, “2-oxo-3,4-dihydropyridine-5-carboxylates and their use” (UNIVERSITE DE LILLE 2 DROIT ET SANTE, priority 2014, dated 2018).
Counter-ions that a name gives are not always drawn.

Columns and labels:
hTGR5 = molecular target: T1, hTGR5 (Homo sapiens, UniProt Q8TDU6); assay: TGR5/CRE Luciferase Assay (hTGR5); format: cell-based; settings: for EC50: HEK 293 cells co-transfected with pCMV tag4b-TGR5h and pCRE TA-Luciferase, overnight incubation; for hTGR5 % trans: percentage of the 10 μM LCA value, HEK 293 cells transfected with hTGR5
T1 construct: expressed in transfected cells; host or cells: HEK293 cells, transiently co-transfected with the pCRE TA-Luciferase reporter
T1 sequence (Q8TDU6 1-330): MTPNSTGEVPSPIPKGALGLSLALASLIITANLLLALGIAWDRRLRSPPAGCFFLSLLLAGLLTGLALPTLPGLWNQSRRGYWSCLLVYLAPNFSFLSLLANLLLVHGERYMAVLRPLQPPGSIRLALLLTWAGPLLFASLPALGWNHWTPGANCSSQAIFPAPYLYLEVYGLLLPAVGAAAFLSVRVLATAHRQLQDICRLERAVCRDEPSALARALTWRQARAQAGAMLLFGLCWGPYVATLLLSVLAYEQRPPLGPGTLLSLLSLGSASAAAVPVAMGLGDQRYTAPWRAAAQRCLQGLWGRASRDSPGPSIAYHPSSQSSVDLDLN
Method in brief: (§1)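 Transiently co-transfected HEK293 cells expressing human or mouse TGR5 plus a CRE-luciferase reporter were incubated overnight with rising compound concentrations in duplicate. Luminescence reported cAMP-driven expression; 10 μM lithocholic acid served as positive reference. Curves fitted to a 4-parameter logistic.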

mTGR5 = molecular target: T2, mTGR5 (Mus musculus, UniProt Q80SS6); assay: TGR5/CRE Luciferase Assay (mTGR5); format: cell-based; settings: for mTGR5 % trans: percentage of the 10 μM LCA value, HEK 293 cells transfected with mTGR5; for EC50: HEK 293 cells co-transfected with pCMV AC6-TGR5m and pCRE TA-Luciferase, overnight incubation
T2 construct: expressed in transfected cells; host or cells: HEK293 cells, transiently co-transfected with the pCRE TA-Luciferase reporter
T2 sequence (Q80SS6 1-329): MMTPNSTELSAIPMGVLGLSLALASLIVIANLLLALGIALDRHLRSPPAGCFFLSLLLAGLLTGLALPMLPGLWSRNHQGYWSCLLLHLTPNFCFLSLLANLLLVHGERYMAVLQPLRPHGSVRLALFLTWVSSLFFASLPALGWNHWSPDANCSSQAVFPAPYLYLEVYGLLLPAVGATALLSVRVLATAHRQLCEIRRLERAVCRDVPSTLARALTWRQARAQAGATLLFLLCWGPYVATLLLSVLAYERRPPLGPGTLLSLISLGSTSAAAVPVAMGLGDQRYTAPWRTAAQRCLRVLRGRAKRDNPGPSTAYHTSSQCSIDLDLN
Method in brief: as §1

Compound	EC50 (hTGR5)	hTGR5 % trans (hTGR5)	mTGR5 % trans (mTGR5)	EC50 (mTGR5)
CC1=C(C(=O)OCc2ccccc2)C(c2ccc(Cl)cc2)CC(=O)N1CCNC(=O)OC(C)(C)C (stereo not drawn) [Compound 52, Benzyl 1-[2-(tert-butoxycarbonylamino)ethyl]-4-(4-chlorophenyl)-6-methyl-2-oxo-3,4-dihydropyridine-5-carboxylate]	2.5 µM	18%	0%	
COCCN1C(=O)CC(c2ccc(Cl)cc2)C(C(=O)OCC(=O)c2ccccc2)=C1C (stereo not drawn) [Example 112, Phenacyl 4-(4-chlorophenyl)-1-(2-methoxyethyl)-6-methyl-2-oxo-3,4-dihydropyridine-5-carboxylate]	5.2 µM	20%	46%	3.2 µM
COCCN1C(=O)CC(c2ccc(Cl)cc2)C(C(=O)OCc2cccc(C(=O)OC)c2)=C1C (stereo not drawn) [Example 96, (3-methoxycarbonylphenyl)methyl 4-(4-chlorophenyl)-1-(2-methoxyethyl)-6-methyl-2-oxo-3,4-dihydropyridine-5-carboxylate]	1.1 µM	63%	83%	0.6 µM
CC1=C(C(=O)OCc2ccccc2)C(c2ccc(Cl)cc2)CC(=O)N1CCS(C)(=O)=O (stereo not drawn) [Compound 62, Benzyl 4-(4-chlorophenyl)-6-methyl-1-(2-methylsulfonylethyl)-2-oxo-3,4-dihydropyridine-5-carboxylate]	2.3 µM	69%	42%	5.9 µM
COc1ccccc1COC(=O)C1=C(C)N(C[C@H]2CCCO2)C(=O)C[C@@H]1c1ccc(Cl)nc1 [Example 165, (2-M ethoxyphenyl)methyl-(4R)-4-(6-chloro-3-pyridyl)-6-methyl-2-oxo-1-[[(2R)-tetrahydrofuran-2-yl]methyl]-3,4-dihydropyridine-5-carboxylate]	0.13 µM	99%	71%	
COCCN1C(=O)CC(c2ccc(Cl)cc2)C(C(=O)OCc2ccc(-c3ccccc3)cc2)=C1C (stereo not drawn) [Example 108, (4-phenylphenyl)methyl 4-(4-chlorophenyl)-1-(2-methoxyethyl)-6-methyl-2-oxo-3,4-dihydropyridine-5-carboxylate]	0.5 µM			0.6 µM
COCCN1C(=O)CC(c2ccc(Cl)cc2)C(C(=O)OCc2ccc(Cl)cc2)=C1C (stereo not drawn) [Example 89, (4-chlorophenyl)methyl 4-(4-chlorophenyl)-1-(2-methoxyethyl)-6-methyl-2-oxo-3,4-dihydropyridine-5-carboxylate]	0.4 µM	65%	84%	0.3 µM
CCCC1CC(=O)N(CCOC)C(C)=C1C(=O)OCc1ccccc1OC (stereo not drawn) [Example 121, (2-methoxyphenyl)methyl 1-(2-methoxyethyl)-6-methyl-2-oxo-4-propyl-3,4-dihydropyridine-5-carboxylate]	1.1 µM	51%	49%	1.2 µM
O=C1CC(c2ccc(Cl)cc2)C(C(=O)NCc2ccccc2)=CN1 (stereo not drawn) [Compound 25, N-benzyl-4-(4-chlorophenyl)-2-oxo-3,4-dihydro-1H-pyridine-5-carboxamide]	1.22 µM	43%	36%	0.5 µM
O=C(NCc1ccccc1)C1=CN(CC2CC2)C(=O)CC1c1ccc(Cl)cc1 (stereo not drawn) [Compound 30, N-benzyl-4-(4-chlorophenyl)-1-(cyclopropylmethyl)-2-oxo-3,4-dihydropyridine-5-carboxamide]	1.5 µM	16%	12%	3.9 µM
COCCN1C(=O)CC(c2ccc(Cl)cc2)C(C(=O)OCc2cccc(Cl)c2)=C1C (stereo not drawn) [Example 88, (3-chlorophenyl)methyl 4-(4-chlorophenyl)-1-(2-methoxyethyl)-6-methyl-2-oxo-3,4-dihydropyridine-5-carboxylate]	0.2 µM	75%	91%	0.4 µM
CC1=C(C(=O)OCc2c(F)cccc2F)C(c2ccc(Cl)cc2)CC(=O)N1C (stereo not drawn) [Example 82, (2,6-difluorophenyl)methyl 4-(4-chlorophenyl)-1,6-dimethyl-2-oxo-3,4-dihydropyridine-5-carboxylate]	0.7 µM	74%	59%	1.5 µM
C=CCN1C(=O)CC(c2ccc(Cl)cc2)C(C(=O)OCc2ccccc2)=C1C (stereo not drawn) [Compound 38, Benzyl 1-allyl-4-(4-chlorophenyl)-6-methyl-2-oxo-3,4-dihydropyridine-5-carboxylate]	1.1 µM	75%	54%	1.5 µM
CC1=C(C(=O)OC2CCc3ccccc32)[C@H](c2ccc(Cl)cc2)CC(=O)N1C[C@H]1CCCO1 (mixture of isomers) [Example 137, Indan-1-yl (4S)-4-(4-chlorophenyl)-6-methyl-2-oxo-1-[[(2R)-tetrahydrofuran-2-yl]methyl]-3,4-dihydropyridine-5-carboxylate]	0.38 µM	70%	40%	0.93 µM
CC1=C(C(=O)OCc2ccc(OCCS(=O)(=O)O)cc2)[C@H](c2ccc(Cl)cc2)CC(=O)N1C[C@H]1CCCO1.N [Example 144, Ammonium 2-[4-[[(4S)-4-(4-chlorophenyl)-6-methyl-2-oxo-1-[[(2R)-tetrahydrofuran-2-yl]methyl]-3,4-dihydropyridine-5-carbonyl]oxymethyl]phenoxy]ethanesulfonate]	0.06 µM	95%	158%	0.1 µM
CCOC(=O)C1=C(c2ccccc2)N(C)C(=O)CC1c1ccc(Cl)cc1 (stereo not drawn) [Example 20, Ethyl 4-(4-chlorophenyl)-1-methyl-2-oxo-6-phenyl-3,4-dihydropyridine-5-carboxylate]	3 µM	42%	53%	2.5 µM
COc1cccc(C2CC(=O)NC(C)=C2C(=O)OCc2ccccc2)c1 (stereo not drawn) [Compound 5, 4-(3-Methoxy-phenyl)-2-methyl-6-oxo-1,4,5,6-tetrahydro-pyridine-3-carboxylic acid benzyl ester]	10.6 µM	31%	34%	11.1 µM
CC1=C(C(=O)OCc2ccccc2)C(c2ccc(Cl)cc2)CC(=O)N1CCN (stereo not drawn) [Compound 53, Hydrochloride salt of benzyl 1-(2-aminoethyl)-4-(4-chlorophenyl)-6-methyl-2-oxo-3,4-dihydropyridine-5-carboxylate]	4.3 µM	16%	0%	
CC1=C(C(=O)OCc2ccccc2)C(c2ccc(Cl)cc2)CC(=O)N1Cc1nc(C)no1 (stereo not drawn) [Compound 59, Benzyl 4-(4-chlorophenyl)-6-methyl-1-[(3-methyl-1,2,4-oxadiazol-5-yl)methyl]-2-oxo-3,4-dihydropyridine-5-carboxylate]	1.1 µM	21%	18%	12.4 µM
COCCN1C(=O)CC(c2ccc(Cl)cc2)C(C(=O)NCc2ccccc2)=C1C (stereo not drawn) [Example 75, N-benzyl-4-(4-chlorophenyl)-1-(2-methoxyethyl)-6-methyl-2-oxo-3,4-dihydropyridine-5-carboxamide]	7.8 µM	34%	25%	18.3 µM
C=C(C)CN1C(=O)CC(c2ccc(Cl)cc2)C(C(=O)OCc2ccccc2)=C1C (stereo not drawn) [Compound 39, Benzyl 4-(4-chlorophenyl)-6-methyl-1-(2-methylallyl)-2-oxo-3,4-dihydropyridine-5-carboxylate]	1.3 µM	82%	73%	1.4 µM
CC1=C(C(=O)OCc2ccc(C(F)(F)F)cc2)C(c2ccc(Cl)cc2)CC(=O)N1C (stereo not drawn) [Example 80, [4-(trifluoromethyl)phenyl]methyl 4-(4-chlorophenyl)-1,6-dimethyl-2-oxo-3,4-dihydropyridine-5-carboxylate]	1.5 µM	60%	67%	1.4 µM
CC1=C(C(=O)OCc2ccc(OCCCS(=O)(=O)O)cc2)[C@H](c2ccc(Cl)cc2)CC(=O)N1C[C@H]1CCCO1.N [Example 168, Ammonium,3-[4-[[(4S)-4-(4-chlorophenyl)-6-methyl-2-oxo-1-[[(2R)-tetrahydrofuran-2-yl]methyl]-3,4-dihydropyridine-5-carbonyl]oxymethyl]phenoxy]propane-1-sulfonate]	0.065 µM	106%	120%	0.026 µM
